Assay results taken from US6465646B1, “1-alkoxy and 1-acyloxy substituted cyclohex-1-ene compounds and sulfur and 1-alkoxycarbonyl analogs having retinoid-like biological activity” (Allergan, Inc., priority 1999, dated 2002).

Tested on: ornithine decarboxylase (ODC)
Assay: Ornithine decarboxylase (ODC) assay: inhibition of TPA induction of ODC activity
Assay type: cell-based
From the text: A classic measure of retinoic acid activity involves measuring the effects of refinoic acid on ornithine decarboxylase (ODC). The original work on the correlation between retinoic acid and decrease in cell proliferation was done by Verma & Boutwell, Cancer Research, 1977,37, 2196-2201. That reference discloses that ornithine decarboxylase activity increased precedent to polyamine biosynthesis. It has been established elsewhere that increases in polyamine synthesis can be correlated or associated with cellular proliferation. Thus, if ODC activity could be inhibited, cell hyperproliferation could be modulated. Although all cases for ODC activity increases are unknown, it is known that 12-O-tetradecanoylphorbol-13-acetate (TPA) induces ODC activity. Retinoic acid inhibits this induction of ODC activity by TPA. […] “IC60” is that concentration of the test compound which causes 60% inhibition in the ODC assay. By analogy, “IC80”, for example, is that concentration of the test compound which causes 80% inhibition in the ODC assay.

IC60 (concentration of the test compound which causes 60% inhibition in the ODC assay) (footnote 2: IC60)	IC80 (footnote 1: IC80, read-out: IC80 (concentration of the test compound which causes 80% inhibition in the ODC assay)) [nM]	Compound
0.3^2 nanomolar		CCOC(=O)c1ccc(C#C/C=C/C2=C(C(=O)OC)CCCC2(C)C)cc1 [Compound 6, Ethyl (E)-4-(4-(6-Carbomethoxy-2,2-dimethylcyclohex-1-enyl)but-3-en-1-yn-yl)benzoate]
	0.46	CCOC(=O)c1ccc(C#C/C=C/C2=C(O[Si](C)(C)C)CCCC2(C)C)cc1 [Compound 1, Ethyl (±)-(E)-4-(4-(6,6-dimethyl-2-(trimethylsily)oxycyclohex-1-enyl)but-3-en-1-yn-yl)benzoate]
